In patent US12527776B2, “Treatment of ciliopathies using inhibitors of glucosylceramide synthase (GCS)” (GENZYME CORPORATION, priority 2019, dated 2026):

Columns and labels:
[1] = tested on: Bbs2−/− immortalized kidney epithelial cells; experiment: Cell culture and primary cilium staining (cilia length, GSL localization); type: cell-based, mouse; details: serum free, compound for 6-24 hours
Procedure: Cell Culture and Primary Cilium Staining
Wild type and Bbs2^−/− kidney epithelium cell lines were established and maintained as described previously (See Natoli T et al., Nat Med, 16:788-792 (2010); and Humes H D. et al., Am J Kidney Dis, 39:1078-1087(2002)). Cells were cultured on collagen I coated glass slides in DMEM containing 1% penicillin/streptomycin, 10% FBS. To determine the effect of compounds on cilia and lipid localization, cells were cultured in serum free media for 24 hours followed by the addition of Compound 1 for 6-24 hours. Cells were then fixed with 4% paraformaldehyde followed by immunofluorescence with anti-GM3 (Creative Biolabs), anti-ceramide (Sigma Aldrich), anti-GM1 (Invitrogen), and anti-acetylated tubulin (Cell Signaling) antibodies. Cilia length was quantified using Metamorph software.

[2] = tested on: human preadipocytes SQ cells with BBS1, BBS2 or BBS10 knocked-down; experiment: In vitro adipocyte differentiation assay; type: cell-based; details: 1.25-10 μM, 10 days differentiation
Procedure: In Vitro Adipocyte Differentiation Assay
In order to examine the effect of Compound 1 on other mutations, we developed an in vitro differentiation assay in human preadipocyte cells. The BBS genes BBS1, BBS2, or BBS10 were knocked-down in cells using siRNA. For this, human preadipocytes SQ cells (Lonza) were plated in PGM-2 Preadipocyte Growth Medium-2 BulletKit, (Lonza) at 30,000 cells/cm^2 density and grown at 37° C. overnight. On the next day, cells were transfected with BBS1, BBS2 or BBS10 specific siRNA in OptiMem (Invitrogen) in the presence of Lipofectamine 2000 (Invitrogen) and differentiated in RDM-2 medium (Lonza) for 10 days with or without Compound 1 at concentrations of […], 5.0 and 10 μM (stock of Compound 1 was prepared in 100% ethanol and diluted with RDM-2 medium to final concentrations before adding to cells). A mixture of nonspecific siRNA (scrambled) was used as a negative control. Media was harvested for leptin analysis with Quantikine ELISA kit (RnD Systems, Inc.) at days 0, 5, 7 and 10 of adipocytes differentiation. Photomicroscopy (Axiovert 25, Zeiss with LASv4.2, Leica) was used to quantify lipid accumulation, which is evident by the size and quantity of lipid vacuoles in the cells.

[3] = tested on: Bbs2−/− mouse model of BBS; experiment: GL1 analysis in tissues of Bbs2−/− mice; type: in vivo; details: 0.033% w/w in feed from 1 to 6 months of age
Description: (§1) A Bbs2^−/− mouse model has been described by Nishimura D Y et al. (Proc Natl Acad Sci, 101:16588-16593 (2004)) with exons 5-14 of Bbs2 replaced with a neomycin cassette. Mice were backcrossed into 129/SvJ background. Treated Bbs2^−/− mice were fed ad libitum with 0.033% w/w of Compound 1 incorporated in feed from the age of 1 month to 6 months. Bbs2^−/− and Wt control animals were fed regular 5053 chow (LabDiet). To establish metabolic disease, Bbs2^−/− mice were left untreated until four-months of age, and then treated with Compound 1 incorporated into feed for the fifth and sixth months.
Quantitative analysis of glycosylceramide was performed by liquid chromatography and tandem mass spectrometry (LC/MS/MS). Briefly, 100 mg of tissue were homogenized in 1 ml of water with Mini Beadbeater (BioSpec Products, Inc., Bartlesville, OK). 10 μl of homogenate was extracted with 1 ml of 90% of 96:2:1:1 acetonitrile/methanol/acetic acid/water (v/v/v/v) (mobile phase A) and 10% of 98:1:1 methanol/acetic acid/water (v/v/v) (mobile phase B); both contained 5 mM ammonium acetate. The samples were placed on a VX-2500 tube vortexer (VWR International, LLC, MA) for 5 min and then centrifuged for 4 min at 8,400 rpm (Beckman Coulter, Inc., IN). […] Quantitation was performed using GL1 standard (Glucocerebrosides, Gaucher's spleen; Matreya, LLC, Pleasant Gap, PA).

[4] = tested on: Bbs2−/− mice; experiment: Olfaction (buried treat test) and main olfactory epithelium immunofluorescence in Bbs2−/− mice; type: in vivo, mouse; details: feed from 1 to 6 months of age
Description: as §1
Animal olfaction was tested using a protocol adapted from Yang M. et al. (Curr Protoc Neurosci, DOI:10.1002/0471142301.ns0824s48 (2009)). Before testing, animals were acclimatised for three days and then fasted for 18 hours in cage with Alpha Dri bedding. Treat (Bioserv Supreme Mini-Treats, Chocolate flavor) was buried 1 cm deep in a clean cage with 3 cm deep bedding. Animals were placed in cage and time was recorded when treat was found and bitten into.
Paraffin-embedded samples of nasal cavities from Wt and Bbs2^−/− mice were prepared and analysed as described supra. The primary antibodies used were acetylated tubulin (Cell Signaling Technology), cytokeratin 14 (Protein Tech), SRY-Box 2 (Cell Signaling Technology), doublecortin (Cell Signaling Technology), and olfactory marker protein (Wako).

[5] = tested on: Bbs2−/− mice; experiment: Liver abnormalities in Bbs2−/− mice (liver weight, ALT, triglycerides); type: in vivo, mouse; details: feed from 1 to 6 months of age
Description: as §1
Triglyceride and ALT levels were measured using a VetACE™ analyzer (Alfa Wasserman, West Coldwell, NJ).

[6] = tested on: Bbs2−/− mice; experiment: Retinal degeneration in Bbs2−/− mice (OCT, immunofluorescence); type: in vivo, mouse; details: treatment for 5 months from one month of age
Description: as §1
A non-invasive imaging technique, optical coherence tomography (OCT) using the Bioptigen Envisu R2200 instrument, was used to generate a cross-sectional image of the retina with 2 micron resolution to measure the thickness of the retinal cell layers in vivo.
Paraffin-embedded samples of eyes from Wt and Bbs2^−/− mice were prepared and analysed as described supra. The primary antibodies used were rhodopsin (Thermo Scientific) and cone arrestin (EMD Millipore).

CC(C)(NC(=O)OC1CN2CCC1CC2)c1cccc(-c2ccc(F)cc2)c1 (centres unmarked) [Compound 1, 1-azabicyclo[2.2.2]oct-3-yl [2-(4′-fluorobiphenyl-3-yl)propan-2-yl]carbamate]
GM3 localization [1]: restores GM3 localization similar to what is observed in Wt cells | cilia length [1]: elongates cilia | leptin secretion [2]: reduction | lipid accumulation [2]: reduction of lipid accumulation | levels of GL1 in the brain, kidney, liver and serum [3]: reduction | adenylate cyclase III (ACIII) in the MOE [4]: increase in ACIII | cilia in the MOE (acetylated tubulin) [4]: preservation/restoration of the cilia in the MOE | differentiation in MOE (immature vs mature neurons) [4]: correction of this phenotype to resemble that of wild type animals | olfaction defect (time to find a buried treat) [4]: restored | liver weight [5]: normalized | serum ALT [5]: normalized | serum triglycerides [5]: normalized | increase in the thickness of the ONL [6]: ~2 fold | rod-cone specific staining (rhodopsin, cone arrestin) [6]: partial restoration/preservation of rod-cone specific staining
